The values below come from patent US5159081A, “Intermediates of peripherally selective N-carbonyl-3,4,4-trisubstituted piperidine opioid antagonists” (Eli Lilly and Company, priority 1991, dated 1992).

One assay has as its target T1, opioid receptor (Mus musculus, UniProt P42866).
T1 construct: Five CF-1 male mice (Charles River, Portage, MI); from tissue; host or cells: living CF-1 male mice (whole animal, endogenous receptor)
Kind of assay: in vivo. Details: species or system CF-1 male mice. Conditions: sc.

Another assay has as its target T2, mu receptor (Rattus norvegicus, UniProt P33535).
T2 construct: The brain tissue, rat whole brain minus cerebellum for mu was homogenized; from tissue; host or cells: brain minus cerebellum of male Sprague Dawley rats, homogenate fraction
Nature of the assay: Naloxone [3H] opioid receptor binding assay (mu receptor). Details: species or system rat (male Sprague Dawley).

Assay [1] relates to peripheral opioid receptors. Nature of the assay: mouse diarrhea test: precipitated diarrhea in morphine-maintained mice (peripheral opioid activity). The class given is in vivo.
Assay [2] addresses peripheral opioid receptors (Mus musculus, UniProt P42866). The assay is described as above. It is filed as in vivo. Conditions: mouse diarrhea test, morphine-maintained mice, subcutaneous or oral, 30 min observation.
Setting [3] is: mouse writhing test, […], s.c. 20 min before acetic acid, read-out: AD50 (the source's name).
[4] abbreviates: 20 min, pH 7.4, read-out: % displacement at 10 nM.
Setting [5] is: 20 min, pH 7.4, read-out: % displacement at 100 nM.
Setting [6] is: AD50 mouse writhing / ED50 mouse diarrhea, higher = greater relative peripheral antagonism.
Setting [7] is: […], rat whole brain minus cerebellum, [3H]naloxone 0.5 nM, pH 7.4, 37° C., 20 min, read-out: Ki.
Setting [8] is: 20 min, pH 7.4, 10 nM test compound, [3H]naloxone 0.5 nM, mu receptor, read-out: % displacement at 10 nM.
[9] abbreviates: 20 min, pH 7.4, 100 nM test compound, [3H]naloxone 0.5 nM, mu receptor, read-out: % displacement at 100 nM.

Where a name gives a salt, the structure may show the parent alone. Read-outs that look alike come from different tables or passages of the source.

T1 sequence (P42866 whole entry): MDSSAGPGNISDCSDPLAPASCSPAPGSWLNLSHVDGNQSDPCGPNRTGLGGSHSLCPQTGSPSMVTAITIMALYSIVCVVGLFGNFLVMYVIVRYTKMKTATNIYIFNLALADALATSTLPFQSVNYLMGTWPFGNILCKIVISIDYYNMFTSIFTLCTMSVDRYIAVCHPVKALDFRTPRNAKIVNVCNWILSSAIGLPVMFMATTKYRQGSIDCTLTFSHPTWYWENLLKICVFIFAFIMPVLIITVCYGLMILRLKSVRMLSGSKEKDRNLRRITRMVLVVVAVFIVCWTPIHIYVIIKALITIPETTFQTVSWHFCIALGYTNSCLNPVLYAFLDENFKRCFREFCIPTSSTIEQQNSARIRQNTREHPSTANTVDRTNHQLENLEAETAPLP
Sequence of peripheral opioid receptors (Mus musculus, UniProt P42866) (P42866 whole entry): as above
T2 sequence (P33535 whole entry): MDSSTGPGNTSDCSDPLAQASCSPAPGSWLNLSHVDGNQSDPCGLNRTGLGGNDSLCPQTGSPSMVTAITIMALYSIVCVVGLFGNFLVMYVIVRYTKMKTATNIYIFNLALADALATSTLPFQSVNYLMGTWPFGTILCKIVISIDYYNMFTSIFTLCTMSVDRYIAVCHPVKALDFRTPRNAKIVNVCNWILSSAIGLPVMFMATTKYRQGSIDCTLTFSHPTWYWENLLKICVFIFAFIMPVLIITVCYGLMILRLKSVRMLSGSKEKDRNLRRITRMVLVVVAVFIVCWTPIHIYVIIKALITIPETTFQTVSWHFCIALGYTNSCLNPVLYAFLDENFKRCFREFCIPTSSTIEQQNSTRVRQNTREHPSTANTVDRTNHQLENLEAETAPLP

As to `CCCOC(=O)CCCC(=O)N[C@@H](CC1CCCCC1)CN1CC[C@](C)(c2cccc(O)c2)[C@H](C)C1` [Example 53], the ED50 on opioid receptor (setting [3]) was > 40 mg/kg; in assay [2] it was 1.06 mg/kg. The inhibition at 0.01 µM at mu receptor (setting [4]) came out at 50%. Also, the inhibition at 0.1 µM at mu receptor (setting [5]) amounted to 88%. In addition, in assay [1] (setting [6]), the “Ratio (ratio of AD50 to ED50)” value is > 38.
One may read the Ki as the dissociation constant of the complex between target and ligand, obtained from inhibition or displacement. In the case of `CCCOC(=O)CCCC(=O)N[C@@H](CC1CCCCC1)CN1CC[C@@](C)(c2cccc(O)c2)[C@@H](C)C1` [Example 54], the figures for the ED50 (at opioid receptor (setting [3]); in assay [2]) were 27 mg/kg and 0.0015 mg/kg, respectively. Further, on mu receptor (setting [4]), the inhibition at 0.01 µM was 81%. In addition, the inhibition at 0.1 µM at mu receptor (setting [5]) was found to be 96%. Also, the inhibitory constant (Ki) at mu receptor (setting [7]) is 5.07 nM. In assay [1] (setting [6]), the “Ratio (ratio of AD50 to ED50)” value was 18000.
Consider `C[C@H]1CN(CCN(C(=O)CC(N)=O)C2CCCCC2)CC[C@@]1(C)c1cccc(O)c1` (relative stereo) [Example 34, N-Cyclohexyl-N-(2-(trans-4-(3-hydroxyphenyl)-3,4-dimethyl-1-piperidinyl)ethyl)propanediamidehydrochloride monohydrate], for which the ED50 is 8.2 mg/kg on opioid receptor (setting [3]) and 0.39 mg/kg in assay [2] (0.5 h, read-out: ED50). For the same compound, at mu receptor (setting [8]), the inhibition at 0.01 µM worked out at 77%. Besides, the inhibition at 0.1 µM on mu receptor (setting [9]) is 91%. In addition, the “Ratio (ratio of AD50 to ED50)” value in assay [1] (setting [6]) is 21.
On the same counts, the results for `CCNC(=O)N[C@H](Cc1ccccc1)CN1CC[C@](C)(c2cccc(O)c2)[C@H](C)C1` [Example 17, N-Ethyl-N'-2-(D-(1-(trans-4-(3-hydroxyphenyl)-3,4-dimethyl-1-piperidinyl)-3-phenyl)propyl)urea hydrochloride monohydrate] are > 40 mg/kg, 3.28 mg/kg, 38%, 82% and > 12.
On to `C[C@@H]1CN(C[C@H](CC2CCCCC2)NC(=O)CCCC(=O)OCC(N)=O)CC[C@]1(C)c1cccc(O)c1` [Example 60], for which the ED50 on opioid receptor (setting [3]) is > 10 mg/kg; in assay [2], 0.035 mg/kg. For the same compound, at mu receptor (setting [4]), the inhibition at 0.01 µM is 76%. In addition, at mu receptor (setting [5]), the inhibition at 0.1 µM worked out at 95%. For the same compound, the inhibition constant Ki on mu receptor (setting [7]) worked out at 5.96 nM. The “Ratio (ratio of AD50 to ED50)” value in assay [1] (setting [6]) is recorded as > 285.
With `CC(C)CC(CCN1CC[C@@](C)(c2cccc(O)c2)[C@@H](C)C1)NC(=O)CCCC(=O)O` (stereo partly drawn) [Example 4, 5-[[1-(2-methylpropyl)-3-[4-(3-hydroxyphenyl)-3,4-dimethyl-1-piperidinyl]propyl]amino]-5-oxopentanoic acid], the ED50 on opioid receptor (mouse, read-out: AD50) worked out at 17.5 mg/kg; in assay [2], 0.07 mg/kg. Moreover, the Ki on mu receptor stood at 1.41 nM. The inhibition at 0.01 µM at mu receptor (setting [4]) came out at 86%. The inhibition at 0.1 µM at mu receptor (setting [5]) came out at 94%. Besides, the “Ratio (ratio of AD50 to ED50)” value in assay [1] (mouse, in vivo) turned out to be 250.
